The results in this text go back to US20140158116A1, “INHIBITING TRPA1 FOR THE TREATMENT OF ASTHMA” (Cubist Pharmaceuticals, Inc., priority 2012, published 2014).

Each structure is given as a SMILES string.

Data set [1] is described as follows: Single ascending dose Phase 1A study. The format is in vivo, human. Conditions: healthy male volunteers; 6 ascending single doses. The text has this: A randomized, double-blind, placebo-controlled, cross-over, single dose, safety, tolerability and pharmacokinetic study of 6 ascending doses of the compound of Formula (Ia) was undertaken in two cohorts of healthy male volunteers. A total of eighteen eligible healthy mail volunteers were recruited utilizing an alternating panel design. The first cohort of nine subjects (Cohort 1) was sequentially enrolled into 3 of 6 dosing periods (Dose Levels 1, 3, and 5). The remaining cohort of nine subjects (Cohort 2) was enrolled in the other 3 dosing periods (Dose Levels 2, 4, and 6). Within each dosing period, subjects were randomly assigned 2:1 to the compound of Formula (I) (n=6) or placebo (n=3). Each subject received one dose of placebo and two different doses of the compound of Formula (I) over the course of their participation in all three dosing periods. Subjects were equally randomized to one of 3 possible sequences, namely 1) placebo, active, active, 2) active, placebo, active, and 3) active, active, placebo.

The next data set concerns the target hTRPV4 (Homo sapiens, UniProt Q9HBA0). Briefly: Patch clamp selectivity, hTRPV4 block. In kind it is cell-based. How it is done:
(§1) Data for TRPA1 inhibition and the selectivity of TRPA1 inhibition was obtained by this method for the compound of Formula (Ia) and included in Table 1 and Table 2. All currents were recorded in whole-cell configuration using EPC-9 and EPC-10 amplifiers and Patchmaster software (HEKA). […] The standard pipette solution consisted of 140 mM CsAsp, 10 mM EGTA, 10 mM HEPES, 2.27 mM MgCl2, 1.91 mM CaCl2, 4 mM MgATP, and 0.1-0.3 mM Na2GTP, with pH adjusted to 7.2 with CsOH. In addition, a solution containing 145 mM CsCl, 10 mM HEPES, 10 mM EGTA and 1 mM MgCl2 (pH 7.2 adjusted with CsOH) can be used. The standard bath solution contained 150 mM NaCl, 10 mM HEPES, 10 mM glucose, 4.5 mM KCl, 1 mM EGTA, 3 mM MgCl2, with pH adjusted to 7.4 with NaOH. In some instances, 2 mM CaCl2 was added in place of EGTA and the concentration of MgCl2 was reduced to 1 mM.
(§2) Data were collected either by continuous recordings at −60 mV or by applying voltage ramps from a holding potential of 0 mV every 4 s. […] Inward and outward currents were analyzed from the ramps at −80 and 80 mV, respectively. […]
(§3) Solutions were switched using a gravity-fed continuous focal perfusion system. […] Temperatures were confirmed using a thermistor (Warner Instruments, TA-29), with temperatures at the recorded cell estimated to be within +/−2° C. of those reported. […]
(The patch-clamp technique gives a direct electrical read-out from membranes.)

The next data set has as its target hERG (Homo sapiens, UniProt Q12809). Briefly: Patch clamp selectivity, hERG. In kind it is cell-based. How it is done: as §1, §2, §3
Data set [2] has as its system airway hyper-responsiveness to Carbachol. Briefly: Sheep allergic asthma model, airway hyper-responsiveness (PC400) to Carbachol. Conditions: 24 hour post-challenge Carbachol. The format is in vivo. Here is the method: Compounds were tested in the sheep model of experimental asthma reported in Abraham W M, Asthma & Rhinitis, 2000: 1205-1227 incorporated herein by reference in its entirety.
The unsedated sheep were restrained in a cart in the prone position with their heads immobilized. After topical anesthesia of the nasal passages with 2% lidocaine solution, a balloon catheter was advanced through one nostril into the lower esophagus. The sheep were intubated with a cuffed endotracheal tube through the other nostril. Pleural pressure was estimated with the esophageal balloon catheter. Lateral pressure in the trachea was measured with a sidehole catheter (inner dimension, 2.5 mm) advanced through and positioned distal to the tip of the endotracheal tube. Transpulmonary pressure, the difference between tracheal and pleural pressure, was measured with a differential pressure transducer catheter system. For the measurement of pulmonary resistance (RL), the proximal end of the endotracheal tube was connected to a pneumotachograph. […]
Baseline concentration response curves to aerosol Carbachol were obtained 1 to 3 days before commencement of drug/vehicle treatment. […] Baseline values of pulmonary resistance (RL) were obtained within 30 minutes of treatment and then re-measured 30 minutes before antigen challenge. […]

Chain of hERG (Q12809 whole entry): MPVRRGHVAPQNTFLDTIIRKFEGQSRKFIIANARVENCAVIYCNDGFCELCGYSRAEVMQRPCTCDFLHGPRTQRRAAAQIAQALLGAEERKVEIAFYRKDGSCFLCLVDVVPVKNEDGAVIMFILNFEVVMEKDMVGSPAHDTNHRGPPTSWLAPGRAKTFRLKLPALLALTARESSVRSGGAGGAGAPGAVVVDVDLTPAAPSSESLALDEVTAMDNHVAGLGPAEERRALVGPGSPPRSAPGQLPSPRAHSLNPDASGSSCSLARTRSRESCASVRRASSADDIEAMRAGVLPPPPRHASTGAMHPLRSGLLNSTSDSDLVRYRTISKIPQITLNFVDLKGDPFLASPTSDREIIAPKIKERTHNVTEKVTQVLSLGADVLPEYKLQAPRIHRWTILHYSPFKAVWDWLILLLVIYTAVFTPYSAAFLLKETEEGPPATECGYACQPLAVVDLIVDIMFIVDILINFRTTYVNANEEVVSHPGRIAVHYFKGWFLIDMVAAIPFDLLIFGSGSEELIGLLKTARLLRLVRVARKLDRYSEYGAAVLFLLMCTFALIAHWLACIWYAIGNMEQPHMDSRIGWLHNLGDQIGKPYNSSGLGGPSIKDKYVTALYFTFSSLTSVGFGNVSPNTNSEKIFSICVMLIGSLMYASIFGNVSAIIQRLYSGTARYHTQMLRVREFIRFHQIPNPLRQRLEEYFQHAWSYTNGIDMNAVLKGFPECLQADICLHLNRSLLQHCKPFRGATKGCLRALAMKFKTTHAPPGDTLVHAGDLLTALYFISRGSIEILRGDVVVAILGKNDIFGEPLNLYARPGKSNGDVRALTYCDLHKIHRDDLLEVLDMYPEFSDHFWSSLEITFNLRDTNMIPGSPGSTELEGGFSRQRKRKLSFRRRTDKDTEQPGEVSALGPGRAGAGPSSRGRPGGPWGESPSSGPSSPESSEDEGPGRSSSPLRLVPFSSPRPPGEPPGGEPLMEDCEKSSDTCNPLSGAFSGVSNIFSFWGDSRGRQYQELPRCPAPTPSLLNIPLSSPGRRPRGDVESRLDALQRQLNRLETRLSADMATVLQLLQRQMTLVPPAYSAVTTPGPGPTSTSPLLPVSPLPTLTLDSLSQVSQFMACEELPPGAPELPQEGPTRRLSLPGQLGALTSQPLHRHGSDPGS
Chain of hTRPV4 (Q9HBA0 whole entry): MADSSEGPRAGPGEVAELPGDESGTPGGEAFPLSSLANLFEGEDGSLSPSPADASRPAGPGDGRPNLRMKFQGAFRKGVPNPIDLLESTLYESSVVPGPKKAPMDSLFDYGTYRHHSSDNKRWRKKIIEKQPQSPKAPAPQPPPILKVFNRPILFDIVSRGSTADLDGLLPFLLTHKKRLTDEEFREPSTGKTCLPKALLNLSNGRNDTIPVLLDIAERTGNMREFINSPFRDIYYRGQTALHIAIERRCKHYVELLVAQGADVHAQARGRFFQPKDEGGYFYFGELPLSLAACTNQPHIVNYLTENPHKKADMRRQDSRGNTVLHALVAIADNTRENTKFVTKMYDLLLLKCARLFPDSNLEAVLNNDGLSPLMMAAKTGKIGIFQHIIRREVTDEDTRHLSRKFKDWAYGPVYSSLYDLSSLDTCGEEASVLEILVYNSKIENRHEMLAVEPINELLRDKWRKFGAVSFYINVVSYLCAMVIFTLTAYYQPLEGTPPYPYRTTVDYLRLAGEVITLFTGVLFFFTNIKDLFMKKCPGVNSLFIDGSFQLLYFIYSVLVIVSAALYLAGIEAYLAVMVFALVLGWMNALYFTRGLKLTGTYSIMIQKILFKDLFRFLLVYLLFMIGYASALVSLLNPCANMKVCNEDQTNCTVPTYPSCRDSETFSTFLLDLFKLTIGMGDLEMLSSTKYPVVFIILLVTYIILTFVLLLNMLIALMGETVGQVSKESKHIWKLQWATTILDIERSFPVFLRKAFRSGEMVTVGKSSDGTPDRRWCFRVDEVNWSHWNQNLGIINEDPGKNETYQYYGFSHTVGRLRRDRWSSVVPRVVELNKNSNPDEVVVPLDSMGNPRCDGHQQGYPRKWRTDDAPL

With `C[C@H]1CCCN1c1ncc(-c2cccc(NC(=O)Cn3cnc4c3c(=O)n(C)c(=O)n4C)n2)cn1` [Formula (Ia)], the safety signals entry in data set [1] was “no safety signals seen that were attributable to the compound of Formula (Ia)”. Also, at hTRPV4, the “Fold Selectivity Compared to TRPA1” value was roughly 170 fold. Besides, the IC50 (commonly the concentration at which inhibition is half-maximal) against hTRPV4 (2 micromolar 4α-PDD, Inward (−80 mV)) is 16 µM; at hERG (Voltage, Tail current (−40 mV)), greater than 10 µM. For the same compound, at hERG (human, pH 7.4, read-out: Fold Selectivity Compared to TRPA1), the selectivity ratio is greater than 100. The “airway hyper-responsiveness (PC400), relative to baseline” value in data set [2] (5 mg/kg PO) and in data set [2] (10 mg/kg PO) was 100% in each case.
